Experimental data taken from PMC11375794, “Discovery of new Hsp90–Cdc37 protein–protein interaction inhibitors: in silico screening and optimization of anticancer activity” (RSC Advances, 2024).

These compounds were tested on MCF-7 breast cancer cell line (assay: MTS cell viability (antiproliferative) assay in MCF-7). Details: Homo sapiens, MCF7, 72 h, MTS assay, 72 hours, mean ± SD.
Format: cell-based
Method: Hormone-positive breast cancer cell line MCF-7 (ATCC-HTB-22; ATCC) was grown in Dulbecco's Modified Eagle's Medium (DMEM), while Ewing sarcoma cell line SK-N-MC (a kind gift from Beat Schäfer) and THP-1 (ATCC-TIB-202; ATCC) cells were grown in Roswell Park Memorial Institute (RPMI) 1640. The medium was supplemented with 10% heat-inactivated fetal bovine serum (Gibco, Thermo Fisher Scientific, Waltham, MA, USA), 100 U per mL penicillin, 100 μg per mL streptomycin, and 2 mM L-glutamine (all from Sigma-Aldrich, St. Louis, MO, USA). All cell lines were incubated at 37 °C in a 5% CO2 atmosphere.
The antiproliferative activity of the compounds was evaluated against MCF-7 (ATCC-HTB-22; ATCC), SK-N-MC (a kind gift from Beat Schäfer) and THP-1 (ATCC-TIB-202; ATCC) cancer cell lines using the MTS assay (Promega, Madison, WI, USA). Cells were seeded in 96-well plates at a density of 2 × 10^4 cells per mL in 100 μL of growth medium for THP-1 and were treated with compounds and controls directly, while 3 × 10^3 cells per mL for MCF-7 and SK-N-MC were seeded in 100 μL of growth medium and allowed to adhere overnight following the treatment. In all cases the cells were treated with respective newly prepared compounds, positive controls (17-DMAG for MCF-7 and SK-N-MC; PU-H71 for THP-1) and a vehicle control (0.5% DMSO). The incubation time after treatment was 72 hours, then CellTiter96® Aqueous One Solution Reagent (Promega, Madison, WI, USA) was added to each well. Following a 3 hours incubation, absorbance was measured at 492 nm using BioTek's Synergy™ 4 Hybrid Microplate Reader (Winooski, VT, USA). The measurements were performed in two biological repetitions and each time the experiment was performed in a triplicate. The IC50 values, representing the concentration of inhibitor required for half-maximal inhibition, are the average of three independent experiments and were calculated using GraphPad Prism 9.5.0 software (San Diego, CA, USA).
In the case of `COc1ccc(OCCN(C)C(=O)c2csc(Nc3cc(C4CCCN(CC#N)C4)nc(C)n3)n2)cc1` (stereo not drawn) [Compound 2], the IC50 is reported as 47.4 ± 0.9 µM.
`COc1ccccc1OCCN(C)C(=O)c1csc(Nc2cc(C3CCCN(CC#N)C3)nc(C)n2)n1` (stereo not drawn) [Compound 3] showed an IC50 of 34.9 ± 2.7 µM.
`CN(Cc1ccccc1)C(=O)c1csc(Nc2cc(N3CCCC3)ncn2)n1` [Compound 6a, N-Benzyl-N-methyl-2-((6-(pyrrolidin-1-yl)pyrimidin-4-yl)amino)thiazole-4-carboxamide] was tested, and the IC50 was 20.8 ± 2.2 µM.
Compound `CN(CCc1ccccc1)C(=O)c1csc(Nc2cc(N3CCCC3)ncn2)n1` [Compound 6b, N-Methyl-N-phenethyl-2-((6-(pyrrolidin-1-yl)pyrimidin-4-yl)amino)thiazole-4-carboxamide] has an IC50 of 15.2 ± 0.7 µM.
Work on `CN(Cc1ccccc1)C(=O)c1csc(Nc2cc(N3CCNCC3)ncn2)n1` [Compound 8a, N-Benzyl-N-methyl-2-((6-(piperazin-1-yl)pyrimidin-4-yl)amino)thiazole-4-carboxamide] yielded an IC50 of 17.1 ± 1.4 µM.
Compound `CN(CCc1ccccc1)C(=O)c1csc(Nc2cc(N3CCNCC3)ncn2)n1` [Compound 8b, N-Methyl-N-phenethyl-2-((6-(piperazin-1-yl)pyrimidin-4-yl)amino)thiazole-4-carboxamide] has an IC50 of 27.3 ± 2 µM.
`O=C(NCCc1ccccc1)c1cccc(Nc2cc(N3CCCC3)ncn2)c1` [Compound 11a, N-Phenethyl-3-((6-(pyrrolidin-1-yl)pyrimidin-4-yl)amino)benzamide] gave an IC50 of 20.6 ± 3 µM.
`CN(Cc1ccccc1)C(=O)c1cccc(Nc2cc(N3CCCC3)ncn2)c1` [Compound 11c, N-Benzyl-N-methyl-3-((6-(pyrrolidin-1-yl)pyrimidin-4-yl)amino)benzamide] showed an IC50 of 36.7 ± 6.1 µM.
`CN(CCc1ccccc1)C(=O)c1cccc(Nc2cc(N3CCCC3)ncn2)c1` [Compound 11d, N-Methyl-N-phenethyl-3-((6-(pyrrolidin-1-yl)pyrimidin-4-yl)amino)benzamide] showed an IC50 of 29.1 ± 5 µM.
Work on `CN(CCOc1ccccc1)C(=O)c1cccc(Nc2cc(N3CCCC3)ncn2)c1` [Compound 11e, N-Methyl-N-(2-phenoxyethyl)-3-((6-(pyrrolidin-1-yl)pyrimidin-4-yl)amino)benzamide] yielded an IC50 of 34.1 ± 2.9 µM.
For `O=C(NCCc1ccccc1)c1ccc(Nc2cc(N3CCCC3)ncn2)cc1` [Compound 11f, N-Phenethyl-4-((6-(pyrrolidin-1-yl)pyrimidin-4-yl)amino)benzamide], the IC50 was greater than 50 µM.
`CN(Cc1ccccc1)C(=O)c1ccc(Nc2cc(N3CCCC3)ncn2)cc1` [Compound 11h, N-Benzyl-N-methyl-4-((6-(pyrrolidin-1-yl)pyrimidin-4-yl)amino)benzamide] showed an IC50 of 18.3 ± 7 µM.
In the case of `CN(CCc1ccccc1)C(=O)c1ccc(Nc2cc(N3CCCC3)ncn2)cc1` [Compound 11i, N-Methyl-N-phenethyl-4-((6-(pyrrolidin-1-yl)pyrimidin-4-yl)amino)benzamide], the IC50 is reported as 18 ± 1.5 µM.
With `CN(CCOc1ccccc1)C(=O)c1ccc(Nc2cc(N3CCCC3)ncn2)cc1` [Compound 11j, N-Methyl-N-(2-phenoxyethyl)-4-((6-(pyrrolidin-1-yl)pyrimidin-4-yl)amino)benzamide] the IC50 was greater than 50 µM.
`O=C(NCCc1ccccc1)c1cccc(Nc2cc(N3CCNCC3)ncn2)c1` [Compound 13a, N-Phenethyl-3-((6-(piperazin-1-yl)pyrimidin-4-yl)amino)benzamide] showed an IC50 of 31.9 ± 3.2 µM.
`CN(Cc1ccccc1)C(=O)c1cccc(Nc2cc(N3CCNCC3)ncn2)c1` [Compound 13c, N-Benzyl-N-methyl-3-((6-(piperazin-1-yl)pyrimidin-4-yl)amino)benzamide] showed an IC50 of 31.9 ± 2.1 µM.
In the case of `CN(CCc1ccccc1)C(=O)c1cccc(Nc2cc(N3CCNCC3)ncn2)c1` [Compound 13d, N-Methyl-N-phenethyl-3-((6-(piperazin-1-yl)pyrimidin-4-yl)amino)benzamide], the IC50 is reported as greater than 50 µM.
For `CN(CCOc1ccccc1)C(=O)c1cccc(Nc2cc(N3CCNCC3)ncn2)c1` [Compound 13e, N-Methyl-N-(2-phenoxyethyl)-3-((6-(piperazin-1-yl)pyrimidin-4-yl)amino)benzamide], the IC50 was greater than 50 µM.
